Measured values from PubChem BioAssay AID258 (DTP/NCI, 2004).
Values joined by “and” are separate entries in the source; they are usually repeats but may differ in a detail not shown here. Identical values can stand only once. Toxic doses and inconclusive results are not listed.

System: CD2F1 mice, L1210 leukemia sc, survival T/C
Assay: NCI In Vivo Anticancer Drug Screen. Data for tumor model L1210 Leukemia (subcutaneous) in CD2F1 (CDF1) mice
Details: endpoint: median survival time, higher = longer survival
How it was run: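 Compound given to mice bearing transplantable tumor. Survival or tumor size then recorded. Result expressed relative to vehicle-dosed control group as T/C.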

For `NC(Cc1ccccc1)C(=O)OCN1C(=O)C2C3C=CC(C2C1=O)C1C2C(=O)N(COC(=O)C(N)Cc4ccccc4)C(=O)C2C31` (stereo not given), the T/C (dose: 21.6 mg/kg/injection, schedule: Q01DX005 (iv), vehicle: other) was 107 % of control, the T/C (dose: 21.6 mg/kg/injection, schedule: Q01DX009 (ip), vehicle: other) was 111 % of control and the T/C (dose: 21.6 mg/kg/injection, schedule: Q01DX009 (ip), vehicle: water) was 107 % of control and 121 % of control. For the same compound, the T/C (dose: 30.9 mg/kg/injection, schedule: Q01DX005 (iv), vehicle: other) was 105 % of control, the T/C (dose: 30.9 mg/kg/injection, schedule: Q01DX009 (ip), vehicle: other) was 112 % of control and the T/C (dose: 30.9 mg/kg/injection, schedule: Q01DX009 (ip), vehicle: water) was 107 % of control. For the same compound, the T/C (dose: 36.0 mg/kg/injection, schedule: Q01DX009 (ip), vehicle: water) was 109 % of control, the T/C (dose: 44.1 mg/kg/injection, schedule: Q01DX005 (iv), vehicle: other) was 111 % of control and the T/C (dose: 44.1 mg/kg/injection, schedule: Q01DX009 (ip), vehicle: other) was 114 % of control. The T/C (dose: 63.0 mg/kg/injection, schedule: Q01DX005 (iv), vehicle: other) was 117 % of control, the T/C (dose: 90.0 mg/kg/injection, schedule: Q01DX009 (ip), vehicle: other) was 177 % of control and the T/C (dose: 90.0 mg/kg/injection, schedule: Q01DX009 (ip), vehicle: water) was 169 % of control. The T/C (dose: 100.0 mg/kg/injection, schedule: Q01DX009 (ip), vehicle: water) was 211 % of control, the T/C (dose: 128.6 mg/kg/injection, schedule: Q01DX009 (ip), vehicle: other) was 221 % of control and the T/C (dose: 128.6 mg/kg/injection, schedule: Q01DX009 (ip), vehicle: water) was 227 % of control. The T/C (dose: 216.0 mg/kg/injection, schedule: Q01DX009 (oral), vehicle: water) was 122 % of control, the T/C (dose: 441.0 mg/kg/injection, schedule: Q01DX009 (oral), vehicle: other) was 162 % of control and the T/C (dose: 630.0 mg/kg/injection, schedule: Q01DX009 (oral), vehicle: other) was 234 % of control. The T/C (dose: 630.0 mg/kg/injection, schedule: Q01DX009 (oral), vehicle: water) was 171 % of control and the T/C (dose: 900.0 mg/kg/injection, schedule: Q01DX009 (oral), vehicle: water) was 270 % of control.
